The experiment concerns Splenocytes. Also noted: species or system CD-1 mice. Particulars: mouse, in vivo.

QS21: the cytokine profile result is “strong and balanced Th1 plus Th2 cytokine profile”.

The values are drawn from US11173207B2 (priority 2016, dated 2021).
